Source: patent publication US20090022806A1, “Nanoparticle and polymer formulations for thyroid hormone analogs, antagonists and formulations and uses thereof” (priority 2006, published 2009)

How the values were obtained:
[1] = system: platelets; assay: Collagen-induced platelet aggregation and secretion in whole blood (impedance); format: cell-based, human; conditions: 10-100 nM
Description: Platelet aggregation and de-granulation in whole blood using Impedance Technique: The Model 560 Whole-Blood Aggregometer and the associated Aggro-Link Software from the Chrono-Log Corporation were used in this study. Two electrodes are placed in diluted blood and an electrical impulse is sent from one to the other. As the platelets aggregate around the electrodes, the Chrono-Log measures the impedance of the electrical signal in ohms of resistance.
The blood was kept on a rocker to extend the life of the platelets, and experiments were done within 5 hours of phlebotomy.
Procedure: For the control, 500 microliters of whole blood, 500 microliters of 0.9% saline, and a magnetic stir bar were mixed into a cuvette, and heated for five minutes to 37 degrees Celsius. Sub-threshold aggregation was induced with 5 microliters of 1-2 μg/ml Collagen, which the Aggregometer measured for 6-7 minutes. […] Ingerman-Wojenski C, Smith J B, Silver M J. Evaluation of electrical aggregometry: comparison with optical aggregometry, secretion of ATP, and accumulation of radiolabeled platelets. J Lab Clin Med. 1983 January; 101(1):44-52.

[2] = system: EC migration toward the extracellular matrix protein vitronectin; assay: Cellular migration assay toward vitronectin (chemotaxis chamber); format: cell-based; conditions: hormone 0.1 uM in upper chamber, vitronectin 25 ug in lower chamber
Method: These assays were performed using a Neuroprobe 96 well disposable chemotaxis chamber with an 8 μm pore size. This chamber allowed for quantitation of cellular migration towards a gradient of either vitronectin or osteopontin. Cultured cells were removed following a standardized method using EDTA/Trypsin (0.01%/0.025%). Following removal, the cells were washed twice and resuspended (2×10^6/ml) in EBM (Endothelial cell basal media, Clonetics Inc.). Add either vitronectin or osteopontin (33 μl) at 0.0125-100 μg/ml to the lower wells of a disposable chemotaxis chamber, and then assemble using the preframed filter. The cell suspension (45 μl) was added to a polypropylene plate containing 5 μl of test agent at different concentrations and incubated for 10 minutes at 22° C. Add 25 μl of cell/test agent suspension to the upper filter wells then incubate overnight (22 hours at 37° C.) in a humidified cell culture incubator. After the overnight incubation, non-migrated cells and excess media were gently removed using a 12 channel pipette and a cell scraper. The filters were then washed twice in PBS (no Ca^+2 or Mg^+2) and fixed with 1% formaldehyde. Membranes of migrated cells were permeated with Triton X-100 (0.2%) then washed 2-3 times with PBS. […] Chemotaxis was quantitatively determined by fluorescence detection using a Cytofluor II (530 excitation/590 emission).

[3] = system: human dermal fibroblast cells; assay: In vitro 3D wound healing assay of human dermal fibroblast cells; format: cell-based; conditions: T4 between 0.1 μM and 1.0 μM
Method: Step 1: Prepare contracted collagen gels: • 1) Coat 24-well plate with 350 ul 2% BSA at RT for 2 hr, • 2) 80% confluent NHDF (normal human dermal fibroblast cells, Passage 5-9) are trypsinized and neutralized with growth medium, centrifuge and wash once with PBS • 3) Prepare collagen-cell mixture, mix gently and always on ice:
• 4) Aspire 2% BSA from 24 well plate, add collagen-cell mixture 350 ul/well, and incubate the plate in 37° C. CO2 incubator. • 5) After 1 hr, add DMEM+5% FBS medium 0.5 ml/well, use a 10 ul tip Detach the collagen gel from the edge of each well, then incubate for 2 days. The fibroblast cells will contract the collagen gel Step 2: Prepare 3D fibrin wound clot and embed wounded collagen culture • 1) Prepare fibrinogen solution (1 mg/ml) with or without testing regents. 350 ul fibrinogen solution for each well in eppendorf tube.
• 2) Cut each contracted collagen gel from middle with scissors. Wash the gel with PBS and transfer the gel to the center of each well of 24 well plate • 3) Add 1.5 ul of human thrombin (0.25 U/ul) to each tube, mix well and then add the solution around the collagen gel, the solution will polymerize in 10 mins. After 20 mins, add DMEM+1% (or 5%) FBS with or without testing agent, 450 ul/well and incubate the plate in 37° C. CO2 incubator for up to 5 days. Take pictures on each day.

[4] = biological target: T1, purified αVβ3 integrin (Homo sapiens, UniProt P05106+P06756); assay: Radioligand binding assay, [125I]-T4 to purified integrin
T1 construct: purchased
T1 sequence (P06756 31-889 limits assumed): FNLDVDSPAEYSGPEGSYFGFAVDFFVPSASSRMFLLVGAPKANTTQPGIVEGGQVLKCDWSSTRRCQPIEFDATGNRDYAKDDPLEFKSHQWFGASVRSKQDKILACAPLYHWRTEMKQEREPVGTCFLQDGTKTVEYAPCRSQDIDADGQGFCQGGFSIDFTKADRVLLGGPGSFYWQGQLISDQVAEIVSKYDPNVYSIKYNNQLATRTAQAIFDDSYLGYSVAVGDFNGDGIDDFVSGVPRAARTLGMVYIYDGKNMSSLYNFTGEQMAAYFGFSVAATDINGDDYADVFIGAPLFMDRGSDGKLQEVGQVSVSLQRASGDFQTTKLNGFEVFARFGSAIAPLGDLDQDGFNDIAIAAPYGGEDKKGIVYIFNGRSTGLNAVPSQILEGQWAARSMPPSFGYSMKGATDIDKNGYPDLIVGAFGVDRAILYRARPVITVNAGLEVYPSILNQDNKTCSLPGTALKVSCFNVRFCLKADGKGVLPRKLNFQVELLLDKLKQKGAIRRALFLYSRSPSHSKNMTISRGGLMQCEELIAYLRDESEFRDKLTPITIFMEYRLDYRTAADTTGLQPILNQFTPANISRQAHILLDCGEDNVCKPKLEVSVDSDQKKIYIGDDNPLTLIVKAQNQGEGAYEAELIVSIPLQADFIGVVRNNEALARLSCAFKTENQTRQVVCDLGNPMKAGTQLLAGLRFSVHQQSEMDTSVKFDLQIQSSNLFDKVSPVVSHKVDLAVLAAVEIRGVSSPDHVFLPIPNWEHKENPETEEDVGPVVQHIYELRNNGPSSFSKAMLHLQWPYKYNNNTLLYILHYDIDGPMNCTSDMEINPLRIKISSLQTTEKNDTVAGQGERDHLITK
T1 sequence (P06756 891-1048 partner limits assumed): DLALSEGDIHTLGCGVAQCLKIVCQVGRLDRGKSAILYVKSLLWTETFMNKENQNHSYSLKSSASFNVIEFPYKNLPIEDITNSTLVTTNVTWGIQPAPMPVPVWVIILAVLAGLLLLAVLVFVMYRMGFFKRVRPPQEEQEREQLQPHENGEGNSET
T1 sequence (P05106 27-788): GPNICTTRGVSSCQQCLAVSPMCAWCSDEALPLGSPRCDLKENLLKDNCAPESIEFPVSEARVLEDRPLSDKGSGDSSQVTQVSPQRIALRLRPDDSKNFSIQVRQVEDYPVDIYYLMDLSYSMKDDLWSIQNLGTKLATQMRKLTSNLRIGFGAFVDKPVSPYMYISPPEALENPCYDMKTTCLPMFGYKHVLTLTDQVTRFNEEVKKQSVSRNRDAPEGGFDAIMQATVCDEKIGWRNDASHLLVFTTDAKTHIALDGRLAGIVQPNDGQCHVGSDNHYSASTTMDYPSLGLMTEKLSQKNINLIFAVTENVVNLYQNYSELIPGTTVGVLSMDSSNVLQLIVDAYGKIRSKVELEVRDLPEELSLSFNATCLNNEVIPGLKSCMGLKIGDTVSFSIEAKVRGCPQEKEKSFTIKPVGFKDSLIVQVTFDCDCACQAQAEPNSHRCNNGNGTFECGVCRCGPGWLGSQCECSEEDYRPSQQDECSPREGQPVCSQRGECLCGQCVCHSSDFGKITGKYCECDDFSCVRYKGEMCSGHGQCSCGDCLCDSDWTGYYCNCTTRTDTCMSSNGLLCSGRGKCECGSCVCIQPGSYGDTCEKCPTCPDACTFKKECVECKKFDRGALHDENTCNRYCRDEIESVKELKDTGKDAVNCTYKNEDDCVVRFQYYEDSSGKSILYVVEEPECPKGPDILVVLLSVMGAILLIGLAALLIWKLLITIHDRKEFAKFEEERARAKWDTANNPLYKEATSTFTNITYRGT
Method: Two μg of purified αVβ3 was mixed with indicated concentrations of test compounds and allowed to incubate for 30 min at room temperature. […] The samples were mixed with sample buffer (50% glycerol, 0.1M Tris-HCl, pH 6.8, and bromophenol blue) and runout on a 5% basic-native gel for 24 h at 45 mA in the cold. The apparatus was disassembled and the gels were placed on filter paper, wrapped in plastic wrap, and exposed to film. Band intensity was determined using the VersaDoc 5000 Imaging system.

reduction of [125I]T4 binding to purified αVβ3 ([4]; competitor 10^−4 M): almost completely displaced
reduction of [125I]T4 binding to purified αVβ3 ([4]; competitor 10^−5 M): maximal
reduction of [125I]T4 binding to purified αVβ3 ([4]; competitor 10^−6 M (total)): 58%
reduction of [125I]T4 binding to purified αVβ3 ([4]; competitor 10^−7 M (total)): 13%
EC50 ([4]; non-linear regression): 0.371 nM
Kd ([4]; non-linear regression): 0.333 nM
SMILES: N[C@@H](Cc1cc(I)c(Oc2cc(I)c(O)c(I)c2)c(I)c1)C(=O)O [T4, L-thyroxine]
enhancing platelet aggregation and secretion (de-granulation) [1]: effective
Mean EC Migration (Fluorescence Units) + SD [2]: 13,083 ± 276 Fluorescence Units
wound healing (outmigrating cells), Day 3 [3]: increases wound healing
